Laboratory results as given in patent US20250195521A1 (Revolution Medicines, Inc., priority 2020, published 2025).
Read-outs that look alike come from different tables or passages of the source.

Columns and labels:
[1] = molecular target: KRAS G12D (Homo sapiens (Human), UniProt P01116+P62937, G12D); test: Ras-Raf disruption/FRET/MOA assay (BRAF RBD, Cyclophilin A); format: biochemical; conditions: read-out: KRAS G12D FRET IC50
How it was run: (§1)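 First, 25 μM Cyclophilin A, 12.5 nM His6-Ras-GMPPNP and 50 nM GST-BRAF RBD are mixed with diluted compound at pH 7.3. Next, 3 h at 25° C. Then 10 nM anti-His Eu-W1024 plus 50 nM anti-GST allophycocyanin for 1.5 h before TR-FRET reading.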

[2] = molecular target: KRAS WT (Homo sapiens (Human), UniProt P01116+P62937); test: as above; format: biochemical; conditions: read-out: KRAS WT FRET data IC50
How it was run: as §1

[3] = molecular target: KRAS G13C (Homo sapiens (Human), UniProt P01116+P62937, G13C); test: as above; format: biochemical; conditions: read-out: KRAS G13C FRET IC50
How it was run: as §1

[4] = molecular target: KRAS G13D (Homo sapiens (Human), UniProt P01116+P62937, G13D); test: as above; format: biochemical; conditions: read-out: KRAS G13D FRET data IC50
How it was run: as §1

[5] = molecular target: KRAS G12C (Homo sapiens (Human), UniProt P01116+P62937, G12C); test: as above; format: biochemical; conditions: read-out: KRAS G12C FRET IC50
How it was run: as §1

[6] = molecular target: KRAS G12S (Homo sapiens (Human), UniProt P01116+P62937, G12S); test: as above; format: biochemical; conditions: read-out: KRAS G12S FRET IC50
How it was run: as §1

[7] = molecular target: NRAS G12C (Homo sapiens (Human), UniProt P01111+P62937, G12C); test: as above; format: biochemical; conditions: read-out: NRAS G12C FRET data IC50
Sequence of NRAS G12C (P01111 whole entry G12C): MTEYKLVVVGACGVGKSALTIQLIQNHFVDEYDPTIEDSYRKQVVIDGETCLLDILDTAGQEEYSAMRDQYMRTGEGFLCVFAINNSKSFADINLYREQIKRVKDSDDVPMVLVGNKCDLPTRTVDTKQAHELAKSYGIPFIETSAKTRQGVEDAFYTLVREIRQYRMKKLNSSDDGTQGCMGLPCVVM
Sequence of NRAS G12C (P62937 whole entry): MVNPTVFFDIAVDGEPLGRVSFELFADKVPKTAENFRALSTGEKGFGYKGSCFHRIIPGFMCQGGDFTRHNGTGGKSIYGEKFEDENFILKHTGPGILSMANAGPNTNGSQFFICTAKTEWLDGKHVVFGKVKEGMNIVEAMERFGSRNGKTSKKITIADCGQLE
How it was run: as §1

[8] = molecular target: KRAS G12V (Homo sapiens (Human), UniProt P01116+P62937, G12V); test: as above; format: biochemical; conditions: read-out: KRAS G12V FRET IC50
How it was run: as §1

[9] = tested on: NCI-H358 (K-Ras G12C); test: CellTiter-Glo cell viability assay, NCI-H358; format: cell-based, human; conditions: 5-day treatment, read-out: H358 Cell Viability assay data (K-Ras G12C, IC50)
How it was run: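 Cells seeded, compound added directly to plates; day 5: plates to RT ~30 min, CellTiter-Glo luminescence; (sample/avg DMSO)*100; 4-parameter fit.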

[10] = molecular target: K-Ras G12C(GMP-PNP) binding to BRAF RBD (Homo sapiens (Human), UniProt P01116+P62937, G12C); test: Disruption of BRAF RBD interaction with K-Ras (FRET / MOA assay), K-Ras G12C; format: biochemical; conditions: read-out: KRAS G12C FRET IC50
How it was run: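 Incubation of compound (up to 30 μM final, 3-fold steps) with GMP-PNP-type loaded Ras isoform, cyclophilin A and BRAF RBD ran 3 h at 25° C, followed by 1.5 h with detection antibodies. Disruption appears as a reduced TR-FRET ratio compared with DMSO controls, expressed as IC50.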

[11] = tested on: Capan-1 cells (K-Ras G12V); test: CellTiter-Glo cell viability, Capan-1; format: cell-based, human; conditions: K-Ras G12V, 5-day treatment, read-out: Capan-1 Cell Viability IC50
How it was run: (§2)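 Cells seeded, compound dispensed straight into wells, 5-day exposure. Plates brought to room temperature ~30 min, CellTiter-Glo luminescence measured. Normalized to DMSO (%), 4-parameter logistic fit.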

[12] = tested on: NCI-H358 cells (K-Ras G12C); test: CellTiter-Glo cell viability, NCI-H358; format: cell-based, human; conditions: K-Ras G12C, 5-day treatment, read-out: H358 Cell Viability IC50
How it was run: as §2

[13] = molecular target: NRAS WT (Homo sapiens (Human), UniProt P01111+P62937); test: Ras-Raf disruption/FRET/MOA assay (BRAF RBD, Cyclophilin A); format: biochemical
Sequence of NRAS WT (P01111 whole entry): as the sequence (P01111 whole entry G12C) above, with C12G counted along it
Sequence of NRAS WT (P62937 whole entry): as the sequence (P62937 whole entry) above
How it was run: as §1

[14] = tested on: K-Ras G12C (NCI-H358 cells); test: Potency assay: pERK in NCI-H358 cells; format: cell-based, human; conditions: NCI-H358 cells, 4 hours, read-out: pERK EC50 (H358 KRAS G12C)
How it was run: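 Cells plated the day before were exposed for 4 h at 37° C, 5% CO2 to a 10-point, 3-fold DMSO dilution series (10 mM top stock), in duplicate. Phospho-ERK was read by AlphaLISA SureFire Ultra or by In-Cell Western with DRAQ5 DNA stain, and IC50 came from a 4-parameter sigmoidal fit.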

[15] = molecular target: KRAS Q61H (Homo sapiens (Human), UniProt P01116+P62937, Q61H); test: Ras-Raf disruption/FRET/MOA assay (BRAF RBD, Cyclophilin A); format: biochemical
How it was run: as §1

| Compound | IC50 [1] [nM] | IC50 [2] [nM] | IC50 [3] [nM] | IC50 [4] [nM] | IC50 [5] [nM] | IC50 [6] [nM] | IC50 [7] [nM] | IC50 [8] [nM] | IC50 ([9]; Homo sapiens, NCI-H358, 120 h) [nM] | IC50 [10] [nM] | IC50 ([11]; Homo sapiens, CAPAN-1, 120 h) [nM] | IC50 ([12]; Homo sapiens, NCI-H358, 120 h) [nM] | IC50 [13] [nM] | EC50 ([14]; Homo sapiens) [µM] | IC50 [15] [nM] | IC50 [9] [nM] | IC50 [11] [nM] | IC50 [12] [nM] | EC50 [14] [µM] |
| --- | --- | --- | --- | --- | --- | --- | --- | --- | --- | --- | --- | --- | --- | --- | --- | --- | --- | --- | --- |
| CCn1c(-c2cccnc2[C@H](C)OC)c2c3cc(ccc31)-c1cc(O)cc(c1)C[C@H](NC(=O)[C@H](C(C)C)N(C)C(=O)[C@H]1CN[C@@H]3CCO[C@H]13)C(=O)N1CCC[C@H](N1)C(=O)OCC(C)(C)C2 [Compound A231] | 10 to 100 | 10 to 100 | 10 to 100 | 10 to 100 | 10 to 100 | 100 to 1000 | 10 to 100 | 100 to 1000 | > 10000 | > 10000 | 1000 to 10000 | 100 to 1000 |  |  |  |  |  |  |  |
| CCn1c(-c2cccnc2[C@H](C)OC)c2c3cc(ccc31)-c1cc(O)cc(c1)C[C@H](NC(=O)[C@H](C(C)C)N(C)C(=O)[C@@H]1OCC[C@@H]1c1ccccc1)C(=O)N1CCC[C@H](N1)C(=O)OCC(C)(C)C2 [Compound A415] | 10 to 100 | 10 to 100 | 10 to 100 | 10 to 100 | 10 to 100 | 10 to 100 | 10 to 100 | 10 to 100 |  |  | 10 to 100 | 10 to 100 | 10 to 100 | < 5 |  |  |  |  |  |
| CCn1c(-c2cccnc2[C@H](C)OC)c2c3cc(ccc31)-c1cc(O)cc(c1)C[C@H](NC(=O)[C@H](C(C)C)N(C)C(=O)[C@H]1OCC[C@H]1N)C(=O)N1CCC[C@H](N1)C(=O)OCC(C)(C)C2 [Compound A420] | 100 to 1000 | 100 to 1000 | 10 to 100 | 100 to 1000 | 10 to 100 | 100 to 1000 | 100 to 1000 | 100 to 1000 | 10 to 100 | 100 to 1000 | 100 to 1000 | 100 to 1000 |  |  |  |  |  |  |  |
| CCn1c(-c2cccnc2[C@H](C)OC)c2c3cc(ccc31)-c1cc(O)cc(c1)C[C@H](NC(=O)[C@H](C(C)C)N(C)C(=O)[C@H]1C[C@@H]1F)C(=O)N1CCC[C@H](N1)C(=O)OCC(C)(C)C2 [Compound A161] | 100 to 1000 | 100 to 1000 | 100 to 1000 | 100 to 1000 | 100 to 1000 | 100 to 1000 | 100 to 1000 | 100 to 1000 | > 10000 | 100 to 1000 | 100 to 1000 | 100 to 1000 |  |  |  |  |  |  |  |
| CCn1c(-c2cccnc2[C@H](C)OC)c2c3cc(ccc31)-c1cc(O)cc(c1)C[C@H](NC(=O)[C@H](C(C)C)N(C)C(=O)N1CC(OC)C1)C(=O)N1CCC[C@H](N1)C(=O)OCC(C)(C)C2 [Compound A364] | 100 to 1000 | 100 to 1000 | 10 to 100 | 100 to 1000 | 10 to 100 | 100 to 1000 | 10 to 100 | 100 to 1000 | 100 to 1000 | 100 to 1000 | 10 to 100 | 10 to 100 |  |  |  |  |  |  |  |
| CCn1c(-c2cccnc2[C@H](C)OC)c2c3cc(ccc31)-c1csc(n1)C[C@H](NC(=O)[C@H](C(C)C)N(C)C(=O)N1CC([C@@H](C)OC)C1)C(=O)N1CCC[C@H](N1)C(=O)OCC(C)(C)C2 [Compound A278] | 100 to 1000 | 10 to 100 | 100 to 1000 | 100 to 1000 | 10 to 100 | 100 to 1000 | 10 to 100 | 10 to 100 |  |  | 10 to 100 |  |  |  | 10 to 100 |  |  |  |  |
| CCO[C@@H]1c2nc(cs2)-c2ccc3c(c2)c(c(-c2cccnc2[C@H](C)OC)n3CC)CC(C)(C)COC(=O)[C@@H]2CCCN(N2)C(=O)[C@H]1NC(=O)[C@H]1[C@H](C)[C@@H]1c1cn(C)cn1 [Compound A507, (1R,2S,3R)—N-((6^3S,3S,4S,Z)-3-ethoxy-1^1-ethyl-1^2-(2-((S)-1-methoxyethyl)pyridin-3-yl)-10, 10-dimethyl-5,7-dioxo-6^1,6^2,6^3,6^4,6^5,6^6-hexahydro-1^1H-8-oxa-2 (4,2)-thiazola-1 (5,3)-indola-6 (1,3)-pyridazinacycloundecaphane-4-yl)-2-methyl-3-(1-methyl-1H-imidazol-4-yl) cyclopropane-1-carboxamide] | 10 to 100 |  | 10 to 100 |  | 10 to 100 | 10 to 100 |  | 10 to 100 |  | 100 to 1000 |  |  |  |  | 10 to 100 | 100 to 1000 | 100 to 1000 | 10 to 100 |  |
| (2S)—N-[(8S,14S)-22-ethyl-4-hydroxy-18, 18-dimethyl-21-[6-(4-methylpiperazin-1-yl) pyridin-3-yl]-9,15-dioxo-16-oxa-10,22,28-triazapentacyclo [18.5.2.1^2,6.1^10,14.0^23,27]nonacosa-1 (26), 2,4,6 (29), 20,23 (27),24-heptaen-8-yl]-3-methyl-2-{N-methyl-1-[(3S)-1-(prop-2-enoyl) pyrrolidin-3-yl]formamido}butanamide [Compound A89] | 100 to 1000 |  | 10 to 100 |  | 100 to 1000 | 100 to 1000 |  | 100 to 1000 |  |  |  |  |  |  | 10 to 100 | 10 to 100 | 1000 to 10000 |  | < 5 |
| CCn1c(-c2cccnc2[C@H](C)OC)c2c3cc(ccc31)-c1cc(O)cc(c1)C[C@H](NC(=O)[C@H](C(C)C)N(C)C(=O)[C@@H]1[C@@H]3CNC[C@@H]31)C(=O)N1CCC[C@H](N1)C(=O)OCC(C)(C)C2 [Compound A164] | 10 to 100 | 10 to 100 | 10 to 100 | 10 to 100 | 10 to 100 | 10 to 100 | 10 to 100 | 10 to 100 | 100 to 1000 | 10 to 100 | 100 to 1000 | 10 to 100 |  |  |  |  |  |  |  |
